The record followed here is paper PMC2806030, “Inhibition of mammalian S6 kinase by resveratrol suppresses autophagy” (Aging (Albany NY), 2009).

Structures are written as SMILES.

Holding throughout (assay): biochemical
Design in all cases: Upstate KinaseProfiler in vitro kinase activity assay, per cent of DMSO control
Settings in all cases: read-out: Activity (% of Control)

Assay [1] deals with EGFR(h) (Homo sapiens, UniProt P00533). As to the method:
(§1) Kinase profile and kinase assay. A Kinase profile against 100 kinases listed for resveratrol at 20 μM was generated utilizing Upstate's KinaseProfiler™ service. Assay protocols for each kinase are available from Upstate (Lake Placid, NY). In vitro kinase assay was performed as described previously. Briefly, HEK293 cells were transfected with HA-S6K1 wt, HA-S6K1 K100R, or vector as indicated. Cells were treated with 1 μg/ml insulin for 10 minutes prior to harvesting in PBS + 0.5% NP-40 + protease and phosphatase inhibitors. 125 μg of lysate per sample was immunoprecipitated using 0.5 μg/sample of anti-HA High-Affinity (Roche, Basel Switzerland). Beads from immunoprecipitations were washed three times in lysis buffer and once in kinase buffer, and kinase assays were performed with recombinant GST-S6 as substrate (1 μg per assay). In the indicated lanes varying doses of resveratrol or DMSO control were added to the reaction prior to addition of the GST-S6 substrate. All samples were subjected to SDS-PAGE, and 32P incorporation was quantified by using a Bio-Rad (Hercules, CA) Phosphor-Imager and subsequent analysis with ImageJ (NIH).  Figure 4. Resveratrol inhibits S6K1 in vitro. (A) Structural similarity between resveratrol and quercetin, a known kinase inhibitor. (B) Kinase inhibition profile for resveratrol at 20 μM obtained using KinaseProfiler™ (Upstate). Dashed line represents 100% activity as compared to control. Black filled-in bar on the graph indicates S6K1. Complete data set is provided in Supplementary Table 1. Error bars represent s.d.m. (C) Phosphorylation of recombinant GST-tagged S6 by immunoprecipitated HA-S6K1 under increasing concentrations of resveratrol (Res). Autoradiograph depicts S6K1 phosphorylation of GST-S6. (D) Average of three separate kinase assay experiments as performed in (C). Densitometry was performed using NIH ImageJ. Error bars represent s.e.m. […] Therefore, we hypothesized that the effect of resveratrol on autophagy could be related to inhibition of one or more upstream kinases. To test this, we performed an in vitro kinase screen and determined an inhibition profile for resveratrol. […] With the exception of S6K1, these kinases play primary roles in the hematopoietic system, and were thus viewed as unlikely to have been responsible for the effect we were studying. […] On the other hand, S6K1 is known to play a requisite role in the regulation of autophagy in Drosophila, making it a promising candidate for the in vivo target of resveratrol that is responsible for inhibition of autophagy.

Assay [2] has as its target Flt3(h) (Homo sapiens, UniProt P36888). On the procedure: as §1
Assay [3] addresses T1, GSK3ß(h) (Homo sapiens, UniProt P49841).
T1 construct: gene GSK3B
As to the method:
as §1

Assay [4] has as its target T2, IGF-1R(h) (Homo sapiens, UniProt P08069).
T2 construct: gene IGF1R
On the procedure: as §1

Assay [5] deals with IRAK1(h) (Homo sapiens, UniProt P51617). As to the method:
as §1

The target of assay [6] is T3, JNK1α1(h) (Homo sapiens, UniProt P45983).
T3 construct: gene MAPK8; isoform alpha1
As to the method: as §1

For assay [7], the target named is T4, LKB1(h) (Homo sapiens, UniProt Q15831).
T4 construct: gene STK11
As to the method: as §1

For assay [8], the target named is NLK (Homo sapiens, UniProt Q9UBE8). As to the method:
as §1

For assay [9], the target named is PAK2(h) (Homo sapiens, UniProt Q13177). As to the method:
as §1

For assay [10], the target named is T5, PDGFRß(h) (Homo sapiens, UniProt P09619).
T5 construct: gene PDGFRB
As to the method:
as §1

The target in assay [11] is T6, PKBγ(h) (Homo sapiens, UniProt Q9Y243).
T6 construct: gene AKT3
On the procedure:
as §1

Assay [12] has as its target T7, PKCßI(h) (Homo sapiens, UniProt P05771).
T7 construct: gene PRKCB; isoform beta I
On the procedure:
as §1

For assay [13], the target named is T8, PKG1ß(h) (Homo sapiens, UniProt Q13976).
T8 construct: gene PRKG1; isoform beta
On the procedure:
as §1

In assay [14] the target is T9, SAPK2b(h) (Homo sapiens, UniProt Q15759).
T9 construct: gene MAPK11
On the procedure:
as §1

Assay [15] has as its target T10, SAPK3(h) (Homo sapiens, UniProt P53778).
T10 construct: gene MAPK12
As to the method: as §1

Assay [16] concerns the target T11, SAPK4(h) (Homo sapiens, UniProt O15264).
T11 construct: gene MAPK13
On the procedure:
as §1

In assay [17] the target is TBK1(h) (Homo sapiens, UniProt Q9UHD2). On the procedure:
as §1

The target of assay [18] is T12, TrkA(h) (Homo sapiens, UniProt P04629).
T12 construct: gene NTRK1
On the procedure:
as §1

T7 sequence (P05771 whole entry, canonical isoform): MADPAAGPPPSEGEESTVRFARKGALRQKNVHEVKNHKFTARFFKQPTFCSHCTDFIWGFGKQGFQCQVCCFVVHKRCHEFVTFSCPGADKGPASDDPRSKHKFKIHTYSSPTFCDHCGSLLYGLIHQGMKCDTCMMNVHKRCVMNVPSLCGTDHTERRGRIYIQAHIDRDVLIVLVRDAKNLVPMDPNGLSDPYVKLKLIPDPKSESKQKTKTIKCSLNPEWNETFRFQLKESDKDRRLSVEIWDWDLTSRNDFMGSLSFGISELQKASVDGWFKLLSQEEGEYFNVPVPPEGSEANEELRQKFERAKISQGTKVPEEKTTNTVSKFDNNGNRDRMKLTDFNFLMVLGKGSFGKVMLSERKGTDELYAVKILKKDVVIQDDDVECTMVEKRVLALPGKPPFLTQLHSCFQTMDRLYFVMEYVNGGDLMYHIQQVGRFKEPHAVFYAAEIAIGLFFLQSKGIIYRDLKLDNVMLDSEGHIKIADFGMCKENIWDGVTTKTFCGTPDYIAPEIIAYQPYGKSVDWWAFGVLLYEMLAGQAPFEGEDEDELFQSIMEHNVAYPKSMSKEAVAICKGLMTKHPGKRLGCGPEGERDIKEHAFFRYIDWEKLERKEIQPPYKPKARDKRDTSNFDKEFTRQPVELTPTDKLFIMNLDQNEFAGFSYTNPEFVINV
Chain of Flt3(h) (P36888 whole entry): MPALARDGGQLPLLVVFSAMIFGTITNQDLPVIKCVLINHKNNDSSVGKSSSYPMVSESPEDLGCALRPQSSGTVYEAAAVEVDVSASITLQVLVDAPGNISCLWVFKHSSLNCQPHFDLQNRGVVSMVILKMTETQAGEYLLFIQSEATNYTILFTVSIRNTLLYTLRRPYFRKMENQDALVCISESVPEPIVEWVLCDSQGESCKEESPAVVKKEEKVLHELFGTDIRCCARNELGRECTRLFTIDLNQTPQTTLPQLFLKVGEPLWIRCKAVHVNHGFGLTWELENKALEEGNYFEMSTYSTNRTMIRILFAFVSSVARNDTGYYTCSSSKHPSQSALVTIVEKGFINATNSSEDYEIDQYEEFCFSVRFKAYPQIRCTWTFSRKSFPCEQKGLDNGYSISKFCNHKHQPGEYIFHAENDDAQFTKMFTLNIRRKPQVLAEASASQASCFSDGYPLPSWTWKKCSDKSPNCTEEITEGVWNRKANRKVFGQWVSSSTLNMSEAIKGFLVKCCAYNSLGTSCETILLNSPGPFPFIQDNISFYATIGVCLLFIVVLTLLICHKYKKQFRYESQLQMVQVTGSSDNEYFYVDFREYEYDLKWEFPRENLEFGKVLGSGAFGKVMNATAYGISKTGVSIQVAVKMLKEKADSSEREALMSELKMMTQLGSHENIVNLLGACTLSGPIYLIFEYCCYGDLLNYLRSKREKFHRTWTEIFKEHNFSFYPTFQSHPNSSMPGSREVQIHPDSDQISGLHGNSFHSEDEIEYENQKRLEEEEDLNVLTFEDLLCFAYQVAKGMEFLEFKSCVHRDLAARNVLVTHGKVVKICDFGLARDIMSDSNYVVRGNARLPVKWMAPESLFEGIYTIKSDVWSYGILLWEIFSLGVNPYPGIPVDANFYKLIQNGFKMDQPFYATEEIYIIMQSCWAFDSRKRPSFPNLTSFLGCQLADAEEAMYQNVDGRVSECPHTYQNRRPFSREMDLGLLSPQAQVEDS
T8 sequence (Q13976 whole entry, canonical isoform): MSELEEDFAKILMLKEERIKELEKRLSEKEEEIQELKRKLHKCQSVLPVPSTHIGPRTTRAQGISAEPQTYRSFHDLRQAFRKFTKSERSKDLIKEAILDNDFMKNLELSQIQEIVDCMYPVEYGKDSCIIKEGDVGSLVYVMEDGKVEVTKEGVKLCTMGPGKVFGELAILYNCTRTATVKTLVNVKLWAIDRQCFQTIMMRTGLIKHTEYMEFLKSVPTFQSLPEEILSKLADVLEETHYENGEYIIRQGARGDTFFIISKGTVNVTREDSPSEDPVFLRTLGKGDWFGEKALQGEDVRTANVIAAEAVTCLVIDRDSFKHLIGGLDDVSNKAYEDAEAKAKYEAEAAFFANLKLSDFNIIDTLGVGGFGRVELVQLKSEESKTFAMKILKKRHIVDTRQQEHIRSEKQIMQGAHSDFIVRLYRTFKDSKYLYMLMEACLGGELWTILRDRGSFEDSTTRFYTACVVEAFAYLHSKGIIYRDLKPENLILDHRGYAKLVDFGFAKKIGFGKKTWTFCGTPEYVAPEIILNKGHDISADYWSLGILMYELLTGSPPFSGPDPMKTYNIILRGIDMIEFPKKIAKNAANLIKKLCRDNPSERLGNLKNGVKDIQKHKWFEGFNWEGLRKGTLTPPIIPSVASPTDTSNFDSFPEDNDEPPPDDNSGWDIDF
T2 sequence (P08069 whole entry): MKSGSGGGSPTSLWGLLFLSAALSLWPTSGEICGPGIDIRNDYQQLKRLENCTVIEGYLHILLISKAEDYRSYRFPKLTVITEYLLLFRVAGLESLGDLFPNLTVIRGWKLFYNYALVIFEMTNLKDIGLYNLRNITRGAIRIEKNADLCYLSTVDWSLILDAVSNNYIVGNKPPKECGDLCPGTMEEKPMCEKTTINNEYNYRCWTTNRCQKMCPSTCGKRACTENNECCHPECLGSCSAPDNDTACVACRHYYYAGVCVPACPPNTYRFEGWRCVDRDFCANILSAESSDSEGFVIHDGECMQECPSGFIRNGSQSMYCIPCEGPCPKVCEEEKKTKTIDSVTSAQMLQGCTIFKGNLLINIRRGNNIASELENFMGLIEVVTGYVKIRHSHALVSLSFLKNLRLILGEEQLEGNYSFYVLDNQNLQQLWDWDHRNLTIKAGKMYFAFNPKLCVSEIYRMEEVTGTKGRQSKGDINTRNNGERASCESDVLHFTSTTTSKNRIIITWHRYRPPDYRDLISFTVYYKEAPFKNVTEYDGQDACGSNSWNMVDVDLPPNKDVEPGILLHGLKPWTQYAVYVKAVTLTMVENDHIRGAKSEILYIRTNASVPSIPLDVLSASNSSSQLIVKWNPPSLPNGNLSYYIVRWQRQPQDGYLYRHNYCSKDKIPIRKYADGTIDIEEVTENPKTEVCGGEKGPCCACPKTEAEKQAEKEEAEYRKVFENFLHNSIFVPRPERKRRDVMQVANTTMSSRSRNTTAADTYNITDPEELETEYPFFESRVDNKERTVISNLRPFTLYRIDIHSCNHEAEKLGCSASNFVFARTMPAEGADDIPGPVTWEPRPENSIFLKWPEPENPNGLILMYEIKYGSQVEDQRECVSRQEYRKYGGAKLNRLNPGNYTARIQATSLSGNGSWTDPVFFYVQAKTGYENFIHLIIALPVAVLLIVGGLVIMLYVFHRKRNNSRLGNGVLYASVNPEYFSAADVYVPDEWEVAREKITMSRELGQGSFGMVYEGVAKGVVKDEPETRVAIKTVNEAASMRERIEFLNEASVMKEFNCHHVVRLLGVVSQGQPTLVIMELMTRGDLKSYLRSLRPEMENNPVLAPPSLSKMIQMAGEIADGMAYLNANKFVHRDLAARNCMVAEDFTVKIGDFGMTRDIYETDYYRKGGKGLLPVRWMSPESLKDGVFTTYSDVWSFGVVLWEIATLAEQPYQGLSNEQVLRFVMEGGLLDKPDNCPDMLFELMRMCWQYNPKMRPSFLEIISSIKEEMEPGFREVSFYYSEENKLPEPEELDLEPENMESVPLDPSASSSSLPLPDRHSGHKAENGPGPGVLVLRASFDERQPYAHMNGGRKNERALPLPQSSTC
T3 sequence (P45983 whole entry, canonical isoform): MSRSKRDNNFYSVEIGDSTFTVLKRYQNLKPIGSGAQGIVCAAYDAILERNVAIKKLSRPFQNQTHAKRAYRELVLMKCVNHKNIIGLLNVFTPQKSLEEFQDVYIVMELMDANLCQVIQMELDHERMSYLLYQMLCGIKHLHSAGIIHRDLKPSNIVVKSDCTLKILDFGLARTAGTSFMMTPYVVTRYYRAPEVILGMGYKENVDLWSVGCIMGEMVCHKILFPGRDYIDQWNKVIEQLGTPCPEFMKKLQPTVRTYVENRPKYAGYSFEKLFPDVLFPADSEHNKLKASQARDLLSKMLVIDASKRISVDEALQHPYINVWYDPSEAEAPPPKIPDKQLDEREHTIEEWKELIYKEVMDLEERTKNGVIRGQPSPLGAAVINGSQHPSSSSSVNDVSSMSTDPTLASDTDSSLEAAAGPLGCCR
T6 sequence (Q9Y243 whole entry): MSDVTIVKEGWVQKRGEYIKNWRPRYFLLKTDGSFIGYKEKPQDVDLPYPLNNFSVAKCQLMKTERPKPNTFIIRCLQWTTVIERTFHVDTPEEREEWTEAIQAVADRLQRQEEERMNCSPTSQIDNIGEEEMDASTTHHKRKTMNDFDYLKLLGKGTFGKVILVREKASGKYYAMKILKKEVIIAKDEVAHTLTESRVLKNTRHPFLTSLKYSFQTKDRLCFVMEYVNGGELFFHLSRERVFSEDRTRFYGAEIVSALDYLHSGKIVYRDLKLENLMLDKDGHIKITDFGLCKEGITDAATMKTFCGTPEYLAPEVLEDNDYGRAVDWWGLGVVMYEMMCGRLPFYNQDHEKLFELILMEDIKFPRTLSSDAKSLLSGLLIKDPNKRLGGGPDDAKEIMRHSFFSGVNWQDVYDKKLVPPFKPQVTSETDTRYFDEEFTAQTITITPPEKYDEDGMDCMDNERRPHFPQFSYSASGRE
T9 sequence (Q15759 whole entry): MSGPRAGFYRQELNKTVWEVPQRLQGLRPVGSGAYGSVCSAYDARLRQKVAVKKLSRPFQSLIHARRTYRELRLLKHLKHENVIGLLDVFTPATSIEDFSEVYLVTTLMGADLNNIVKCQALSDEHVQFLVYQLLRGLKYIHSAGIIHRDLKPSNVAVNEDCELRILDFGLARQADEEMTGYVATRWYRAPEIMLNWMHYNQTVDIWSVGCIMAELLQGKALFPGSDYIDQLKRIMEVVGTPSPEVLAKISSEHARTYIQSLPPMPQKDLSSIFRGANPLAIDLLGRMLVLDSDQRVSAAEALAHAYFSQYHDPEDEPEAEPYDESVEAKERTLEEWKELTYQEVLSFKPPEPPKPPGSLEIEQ

For the compound `Oc1ccc(/C=C/c2cc(O)cc(O)c2)cc1` [Res, resveratrol], the remaining activity at 20 µM in [1] was 90 ± 5%; in [2] it was 41 ± 1%; in assay [3], 92%; in assay [4] it was 75%; in [5], 97%; in assay [6] it was 89 ± 5%. The remaining activity at 20 µM in [7] came to 102 ± 3%; in [8], 30 ± 2%; in assay [9], 98 ± 4%; in [10] it was 119 ± 2%; in [11], 89 ± 4%; in assay [12], 103 ± 5%. The remaining activity at 20 µM in [13] was determined as 56 ± 4%; in assay [14] it was 100 ± 1%; in assay [15] it was 110 ± 5%; in assay [16], 92 ± 4%; in assay [17], 62 ± 4%; in assay [18], 31 ± 3%.
